Broadly, the EC50 is the concentration needed to bring the measured effect to its halfway point.

The test system of this test is HCV 1b genotype replicon. Briefly: HCV replicon assay (qRT-PCR or luciferase), genotype 1b. Particulars: Hepatitis C virus; HCV 1b replicon cell lines (SGR 11-7 or Huh-luc/neo-ET); qRT-PCR or luciferase readout; two labels in one cell = mixture of the two compounds tested; read-out: Genotype-1b replicon EC50 Range. Type of test: cell-based. The source says: HCV replicon cell lines (kindly provided by R. Bartenschlager) isolated from colonies as described by Lohman et. al. (Lohman et al. (1999) Science 285: 110-113, expressly incorporated by reference in its entirety) and used for all experiments. The HCV replicon has the nucleic acid sequence set forth in EMBL Accession No.: AJ242651, the coding sequence of which is from nucleotides 1801 to 8406.
The coding sequence of the published HCV replicon was synthesized and subsequently assembled in a modified plasmid pBR322 (Promega, Madison, Wis.) using standard molecular biology techniques. One replicon cell line (“SGR 11-7”) stably expresses HCV replicon RNA which consists of (i) the HCV 5′UTR fused to the first 12 amino acids of the capsid protein, (ii) the neomycin phosphotransferase gene (neo), (iii) the IRES from encephalomyocarditis virus (EMCV), and (iv) HCV NS2 to NS5B genes and the HCV 3′UTR. Another replicon cell line (“Huh-luc/neo-ET”) described by Vrolijk et. al. (Vrolijk et. al. (2003) Journal of Virological Methods 110:201-209, expressly incorporated by reference in its entirety) stably expresses HCV replicon RNA which consists of (i) the HCV 5′UTR fused to the first 12 amino acids of the capsid protein, (ii) the firefly luciferase reporter gene, (iii) the ubiquitin gene, (iv) the neomycin phosphotransferase gene (neo), (v) the IRES from encephalomyocarditis virus (EMCV), and (vi) HCV NS3 to NS5B genes that harbor cell culture adaptive mutations (E1202G, T1280I, K1846T) and the HCV 3′UTR.
These cell lines were maintained at 37° C., 5% CO2, 100% relative humidity in DMEM (Cat#11965-084, Invitrogen), with 10% fetal calf serum (“FCS”, Invitrogen), 1% non-essential amino acids (Invitrogen), 1% of Glutamax (Invitrogen), 1% of 100× penicillin/streptomycin (Cat#15140-122, Invitrogen) and Geneticin (Cat#10131-027, Invitrogen) at 0.75 mg/ml or 0.5 mg/ml for 11-7 and Huh-luc/neo-ET cells, respectively.
EC50 values of single agent compounds and combinations were determined by HCV RNA detection using quantitative RT-PCR, according to the manufacturer's instructions, with a TAQMAN® One-Step RT-PCR Master Mix Reagents Kit (Cat# AB 4309169, Applied Biosystems) on an ABI Model 7500 thermocycler. The TaqMan primers used for detecting and quantifying HCV RNA were obtained from Integrated DNA Technologies. HCV RNA was normalized to GAPDH RNA levels in drug-treated cells, which was detected and quantified using the Human GAPDH Endogenous Control Mix (Applied Biosystems, AB 4310884E). Total cellular RNA was purified from 96-well plates using the RNAqueous 96 kit (Ambion, Cat# AM1812). Chemical agent cytotoxicity was evaluated using an MTS assay according to the manufacturer's directions (Promega).
Since clinical drug resistance often develops in viral infections following single agent therapies, there is a need to assess the additive, antagonistic, or synergistic properties of combination therapies. We use the HCV replicon system to assess the potential use of the compound of the present invention or in combination therapies with Interferon alpha, cyclosporine analogs and inhibitors targeting other HCV proteins. The acute effects of a single or combinations of drugs are studied in the “Huh-luc/neo-ET” replicon with each chemical agent titrated in an X or Y direction in a 6 point two-fold dilution curve centered around the EC50 of each drug. Briefly, replicon cells are seeded at 7,000 cells per well in 90 ul DMEM (without phenol red, Invitrogen Cat.#31053-036) per well with 10% FCS, 1% non-essential amino acids, 1% of Glutamax and 1% of 100× penicillin/streptomycin and incubated overnight at 37° C., 5% CO2, 100% relative humidity. […]

Take `COC(=O)N[C@H](C(=O)N[C@H]1CCC[C@@H]1C(=O)Nc1ccc(-c2ccc(-c3c[nH]c([C@@H]4CCCN4C(=O)[C@@H](NC(=O)OC)C(C)C)n3)cc2)cc1)C(C)C` (racemic) [349a and 349b]: the EC50 was 1 to 10 nM. The figure for `COC(=O)N[C@H](C(=O)N[C@@H]1CCC[C@H]1NC(=O)c1ccc(-c2ccc(-c3c[nH]c(C4CCCN4C(=O)[C@@H](NC(=O)OC)C(C)C)n3)cc2)cc1)C(C)C` (mixture of isomers) [367a and 367b] is less than 1 nM. In the case of `COC(=O)N[C@H](C(=O)N[C@@H]1CCC[C@H]1NC(=O)c1ccc(-c2ccc(-c3ccc4[nH]c([C@@H]5CCCN5C(=O)[C@@H](NC(=O)OC)C(C)C)nc4c3)cc2)cc1)C(C)C` (racemic) [371a and 371b], the EC50 was less than 1 nM.

`COC(=O)N[C@H](C(=O)O[C@@H]1CCC[C@H]1NC(=O)c1ccc(-c2ccc(-c3c[nH]c([C@@H]4CCCN4C(=O)[C@@H](NC(=O)OC)C(C)C)n3)cc2)cc1)C(C)C` (racemic) [377a and 377b]: the EC50 is less than 1 nM.

Regarding `COC(=O)N[C@H](C(=O)N1CCC[C@@H](C(=O)Nc2ccc(-c3ccc(-c4cnc([C@@H]5CCCN5C(=O)[C@@H](NC(=O)OC)C(C)C)[nH]4)cc3)cc2)C1)C(C)C` (racemic) [382a and 382b], the concentration giving a half-maximal response (EC50) was less than 1 nM.

Turning to `COC(=O)N[C@H](C(=O)N1CC[C@H](C(=O)Nc2ccc(-c3ccc(-c4cnc([C@@H]5CCCN5C(=O)[C@@H](NC(=O)OC)C(C)C)[nH]4)cc3)cc2)C1)C(C)C` [Example 83], the EC50 lay within 1 to 10 nM. For `COC(=O)N[C@H](C(=O)N1CCC[C@H]1CNC(=O)c1ccc(-c2ccc(-c3cnc([C@@H]4CCCN4C(=O)[C@@H](NC(=O)OC)C(C)C)[nH]3)cc2)cc1)C(C)C` [Example 257], the half-maximal effective concentration (EC50) is less than 1 nM. The value for `COC(=O)N[C@H](C(=O)N1CC[C@H](C(=O)Nc2ccc3cc(-c4ccc5[nH]c([C@@H]6CCCN6C(=O)[C@@H](NC(=O)OC)C(C)C)nc5c4)ccc3c2)C1)C(C)C` [Example 327] was greater than 10 nM; that for `COC(=O)N[C@H](C(=O)N1CC[C@@H](NC(=O)c2ccc(-c3ccc(-c4c[nH]c([C@@H]5CCCN5C(=O)[C@@H](NC(=O)OC)C(C)C)n4)cc3)cc2)C1)C(C)C` [Example 352] was 1 to 10 nM. Regarding `COC(=O)N[C@H](C(=O)N1CCC(C(=O)Nc2ccc(-c3ccc(-c4c[nH]c([C@@H]5CCCN5C(=O)[C@@H](NC(=O)OC)C(C)C)n4)cc3)cc2)C1)C(C)C` (stereo partly shown) [Example 355], the EC50 was 1 to 10 nM. Consider `COC(=O)N[C@H](C(=O)N1CCC[C@H]1CNC(=O)c1cccc(-c2ccc3cc(-c4c[nH]c([C@@H]5CCCN5C(=O)[C@@H](NC(=O)OC)C(C)C)n4)ccc3c2)c1)C(C)C` [Example 361], for which the EC50 lay within 1 to 10 nM. On to `COC(=O)N[C@H](C(=O)N1CCC(C(=O)Nc2ccc(-c3ccc4[nH]c([C@@H]5CCCN5C(=O)[C@@H](NC(=O)OC)C(C)C)nc4c3)cc2)C1)C(C)C` (stereo partly shown) [Example 363], for which the EC50 was greater than 10 nM. The figure for `COC(=O)N[C@H](C(=O)N1CC[C@H](C(=O)Nc2ccc3cc(-c4ccc(-c5c[nH]c([C@@H]6CCCN6C(=O)[C@@H](NC(=O)OC)C(C)C)n5)cc4)ccc3c2)C1)C(C)C` [Example 365] is 1 to 10 nM; for `COC(=O)N[C@H](C(=O)N[C@@H]1CCC[C@H]1NC(=O)c1ccc(-c2ccc(-c3c[nH]c([C@@H]4CCCN4C(=O)[C@@H](NC(=O)OC)C(C)C)n3)cc2)cc1)C(C)C` [Example 369] it is greater than 10 nM; for `COC(=O)N[C@H](C(=O)N1CC[C@H](NC(=O)c2ccc(-c3ccc(-c4c[nH]c([C@@H]5CCCN5C(=O)[C@@H](NC(=O)OC)C(C)C)n4)cc3)cc2)C1)C(C)C` [Example 372] it is 1 to 10 nM.

For `COC(=O)N[C@H](C(=O)N1CC[C@@H](C(=O)Nc2ccc(-c3ccc(-c4c[nH]c([C@@H]5CCCN5C(=O)[C@@H](NC(=O)OC)C(C)C)n4)cc3)cc2)C1)C(C)C` [Example 374], the EC50 is less than 1 nM.

As for `COC(=O)N[C@H](C(=O)N1CC[C@H](C(=O)Nc2ccc(-c3ccc(-c4c[nH]c([C@@H]5CCCN5C(=O)[C@@H](NC(=O)OC)C(C)C)n4)cc3)cn2)C1)C(C)C` [Example 379], the EC50 is less than 1 nM. On to `COC(=O)N[C@H](C(=O)N1CCC[C@@H]1CNC(=O)c1ccc(-c2ccc(-c3cnc([C@@H]4CCCN4C(=O)[C@@H](NC(=O)OC)C(C)C)[nH]3)cc2)cc1)C(C)C` [Example 380], for which the EC50 is 1 to 10 nM. Take `COC(=O)N[C@H](C(=O)NC[C@H]1CCCN1C(=O)c1ccc(-c2ccc(-c3cnc([C@@H]4CCCN4C(=O)[C@@H](NC(=O)OC)C(C)C)[nH]3)cc2)cc1)C(C)C` [Example 381]: the EC50 was greater than 10 nM.

Values taken from US8822700B2, “Hepatitis C virus inhibitors” (Enanta Pharmaceuticals, Inc., priority 2009, dated 2014).
